The test system of one data set is C57BL/6 mice. Description: PXR target gene expression in C57BL/6 mice after FKK6 gavage. Conditions: for Cyp3a11 fold expression / mdr1 fold expression: Fig 4d. In kind it is in vivo, mouse. The method, then:
(§1) (Scheer et al, 2010) were administered 10% DMSO (n = 3) or FKK6 (n = 3) in 3 or 5 doses, with each dose interval of 12 h. Each gavage dose volume was 100 μl. 2–4 h after the dosing period, mice were sacrificed, and tissues were harvested for further analysis. The mouse studies were performed three independent times over an 18‐month period. All purchased mice were acclimatized in the Einstein vivarium for ~ 2 weeks before experiments started. […]. The room temperature was maintained at 25 ± 2°C with 55 ± 5% humidity. All studies were approved by the Institute of Animal Studies at the Albert Einstein College of Medicine, INC (IACUC # 20160706, 20160701 and preceding protocols), and specific animal protocols were also approved by additional protocols (IACUC# 20170406, 20170504) and Animal Care and Use Review Office (ACURO) of the US Army Medical Research and Materiel Command (PR160167, W81XWH‐17‐1‐0479). […]
(§2) Mouse small, large intestine and liver samples were collected and total RNAs were […]
(§3) isolated. […] Each tissue PCR was […]
(§4) repeated in quadruplicate. The expression was normalized to internal control, GAPDH. ( b,d) The histograms show mean (95 %CI) values, c, mean (SD) and two way ANOVA followed with Tukey's post hoc test. The entire experiment was repeated n = 3 for reproducibility. The data shown is one representative experiment .

The next data set has as its system Cyp3a11. The description is as above. In kind it is in vivo, mouse. Conditions: both sexes, C57BL/6J, mouse, 500 μM, 5 doses (60 h), individual mice. The method, then:
as §1, §2, §3, §4

In another data set the test system is mdr1a. The description is as above. In kind it is in vivo, mouse. Conditions: both sexes, C57BL/6J, mouse, 500 μM, 5 doses (60 h), individual mice. How it is done: as §1, §2, §3, §4
A further data set addresses T1, SIRT1 (Homo sapiens, UniProt Q96EB6).
T1 construct: full -length N-terminal His-tag protein (MW 83.2 kDa); His-tag (N); purchased Reaction Biology Corp; host or cells: E. coli
Description: Sirtuin (SIRT1) assay. In kind it is biochemical. Conditions: substrate Acetylated peptide, replicates. The method, then:
Software Tool and reprinted with permission from KINOME scan®, a division of DiscoveRx […]
The following […] assays (HDAC, SIRT1, PRMT1, PARP1, p300, pCAF) were performed by Reaction Biology Corp. FKK6 was screened at a single concentration of 10 μM in duplicate in two separate experiments. The appropriate controls for the individual assays are published. The overall […]
enzyme activity in the assay is reported as a % activity in DMSO control wells. Control IC50 […]
Briefly, for the Sirtuin (SIRT1) assay, human SIRT1 (GenBank
Accession No. NM012238) full -length N-terminal His-tag protein (MW 83.2 kDa) was purified after expression in E. coli. The reaction buffer was freshly prepared and constituted 50 mM Tris-HC l ( p H 8), 137 mM NaCl, 2.7 mM KCl, 1 mM MgCl2, and just before use, 1 mg/mL BSA and 1% DMSO was added. The substrate was a fluorogenic acetylated peptide of p53 residues 379-382 (RHKK (Ac)- AM C) . In th e multi-well format, the 2X enzyme was mixed with the reaction buffer followed by compound (in 100% DMSO) titration via Acoustic technology (Echo550; LabCyte Inc, Sunnyvale, CA) in the nanoliter range. The mixture was spun down and 2X substrate (including NAD+) was added to initiate the reaction at 30° C at 2h under seal. […] Fluorescence kinetic measurements were conducted for 1.5 h in 15 min intervals using Envision (Ex 360nm/Em 460nm). […]

The mark [1] stands for this setting: 500 μM, 5 doses (60 h), individual mice.

Consider 1 compound from article PMC7136958, “Targeting the pregnane X receptor using microbial metabolite mimicry” (EMBO Molecular Medicine, 2020).

Values joined by “and” are separate entries in the source; they are usually repeats but may differ in a detail not shown here. Equal entries are not always repeated. Where two headings read alike, the source gives them in different places.

T1 sequence (Q96EB6 whole entry): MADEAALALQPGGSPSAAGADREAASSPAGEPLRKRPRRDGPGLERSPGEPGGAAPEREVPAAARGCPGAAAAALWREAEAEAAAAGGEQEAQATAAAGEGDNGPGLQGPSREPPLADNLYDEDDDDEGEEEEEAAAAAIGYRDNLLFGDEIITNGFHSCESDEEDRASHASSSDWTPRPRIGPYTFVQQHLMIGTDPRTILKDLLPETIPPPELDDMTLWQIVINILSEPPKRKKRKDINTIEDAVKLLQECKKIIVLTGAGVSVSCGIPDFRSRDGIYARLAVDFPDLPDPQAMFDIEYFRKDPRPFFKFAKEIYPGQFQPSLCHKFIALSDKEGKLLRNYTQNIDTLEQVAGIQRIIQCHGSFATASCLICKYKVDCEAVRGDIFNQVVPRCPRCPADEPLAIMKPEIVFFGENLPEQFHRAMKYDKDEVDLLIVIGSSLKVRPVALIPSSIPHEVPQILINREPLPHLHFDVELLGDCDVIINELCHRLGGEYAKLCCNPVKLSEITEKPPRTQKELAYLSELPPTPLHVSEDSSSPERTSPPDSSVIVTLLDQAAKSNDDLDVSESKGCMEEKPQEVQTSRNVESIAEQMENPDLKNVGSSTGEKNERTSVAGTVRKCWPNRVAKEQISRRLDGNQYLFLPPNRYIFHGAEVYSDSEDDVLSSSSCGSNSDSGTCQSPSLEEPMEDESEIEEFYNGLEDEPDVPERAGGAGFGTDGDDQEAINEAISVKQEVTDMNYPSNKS

As for `C#CCC(O)(c1ccncc1)c1cc2ccccc2n1S(=O)(=O)c1ccccc1` (centres unmarked) [FKK6], the “Cyp3a11 fold induction, Liver” value with C57BL/6 mice (500 μM FKK6 gavage every 12 h, 5 doses (60 h), individual mice) was 1.38 fold and 0.89 fold. Besides, in the data set on C57BL/6 mice (setting [1]), the “Cyp3a11 fold induction, Large Intestine” value is 2.23 fold and 0.59 fold; the “Cyp3a11 fold induction, Small Intestine” value was 1.06 fold and 0.22 fold and 0.76 fold; the “mdr1a fold induction, Large Intestine” value is 1.77 fold and 1.33 fold; the “mdr1a fold induction, Liver” value is on record as 1.83 fold. In the data set with C57BL/6 mice (setting [1]), the “mdr1a fold induction, Small Intestine” value was 2.65 fold and 1.8 fold and 0.95 fold; the “mdr1b fold induction, Large Intestine” value is 0.89 fold and 0.42 fold and 0.77 fold; the “mdr1b fold induction, Liver” value is 1.65 fold and 1.12 fold and 0.6 fold; the “mdr1b fold induction, Small Intestine” value was 2.4 fold and 1.54 fold and 0.43 fold. Also, in the data set on C57BL/6 mice (Large Intestine), the Cyp3a11 fold expression is 1.73 fold and 2.49 fold and 1.98 fold; the mdr1 fold expression was 1.58 fold and 1.34 fold and 1.57 fold. In addition, in the data set on C57BL/6 mice (Liver), the Cyp3a11 fold expression is 1.21 fold and 1.31 fold and 1.6 fold; the mdr1 fold expression is 0.95 fold and 0.87 fold and 0.81 fold. Also, in the data set with C57BL/6 mice (Small Intestine), the Cyp3a11 fold expression is 1.28 fold and 1.07 fold and 0.75 fold; the mdr1 fold expression was 1.46 fold and 2.26 fold and 1.43 fold. The “PXR target gene (cyp3a11, mdr1a, mdr1b, mdr1) expression across organs” value in the data set with C57BL/6 mice (~500 μM, 36 or 60 h) was “No significant effect”. In addition, in the data set with Cyp3a11 (in vivo, read-out: Cyp3a11 fold induction, Large Intestine), the fold induction at 60 h, 500 µM turned out to be 2.55. The compound further came in with a fold induction at 60 h with Cyp3a11 (liver, oral, 500 μM FKK6 gavage every 12 h) of 1.72. Moreover, in the data set on mdr1a (in vivo, read-out: mdr1a fold induction, Liver), the fold induction at 60 h, 500 µM is 1.81. Further, the fold induction at 60 h, 500 µM with mdr1a (large intestine, oral, read-out: mdr1a fold induction, Large Intestine) is 1.27. In addition, the fold induction at 60 h, 500 µM in the data set with mdr1a (liver, oral, read-out: mdr1a fold induction, Liver) amounted to 3.05. Also, the “% Enzyme Activity to DMSO controls” value on SIRT1 (10 μM) is 100.03% and 99.84% and 94.47%. Besides, the remaining activity at 10 µM at SIRT1 (read-out: % Enzyme Activity to DMSO controls) worked out at 100%.
